A word on the mortality: it is the percentage killed. In general, melting point refers to the temperature, or range, at which the solid turns liquid.

The subject of one series is Spodoptera litura. Briefly: Efficacy test against Spodoptera litura (cabbage leaf dip). The note with it: foliar, 144 h, cabbage leaves soaked 30 seconds, second-instar larvae, 6 days after release, 25° C., read-out: mortality rate against Spodoptera litura. Type of series: in vivo. As to the method:
(§1) Five parts of the compound of the present invention, 93.6 parts of dimethylformamide and 1.4 parts of a polyoxyethylene alkyl aryl ether were mixed together and dissolved to obtain an emulsion (I) containing 5% of the active ingredient.
(§2) The mortality rate was calculated using the following equation.
(§3) Mortality rate (%)=(number of dead insects/number of test insects)×100
The emulsion (I) was diluted with water to achieve a concentration of the compound of the present invention of 125 ppm. Cabbage leaves were soaked in the diluted liquid for 30 seconds. These cabbage leaves were then placed in a Petri dish, and five second-instar larvae of Spodoptera litura were released into the dish. The Petri dish closed with a lid was placed in a thermostatic chamber at a temperature of 25° C. and a humidity of 60%. Mortality was investigated 6 days after larvae release, and the mortality rate was calculated. The test was repeated.

A further series concerns Mythimna separata. Briefly: Efficacy test against Mythimna separata (artificial feed). Type of series: in vivo. The note with it: second-instar larvae; 1 μl of 5% emulsion (I) in 0.8 g artificial feed; 5 days at 25° C. On the procedure: as §1
An emulsion (II) containing 0% of an active ingredient was prepared in the same method as that described above, with the exception that 5 parts of the compound of the present invention was not mixed and dissolved.
as §2, §3
First, 0.8 g of an artificial feed (Insecta LFS, manufactured by Nosan Corporation) and 1 μl of the emulsion (I) were mixed thoroughly, and 0.2 g of the resulting mixture was placed in each of the treatment areas of a plastic test container (volume: 1.4 ml) to complete preparation of a test feed. Two second-instar larvae of Mythimna separata were inoculated into each treatment area, and the plastic test container was sealed with a plastic lid. The sealed container was placed for 5 days in a thermostatic chamber at 25° C. Subsequently, the mortality rate and the amount of feed consumed were checked. In addition, a test for a control area was carried out under the same conditions as those described above, with the exception of replacing the emulsion (I) with the emulsion (II). The test was repeated in both cases.

The test system of another series is Plutella xylostella. Briefly: Efficacy test against Plutella xylostella (cabbage leaf dip). Format: in vivo. The note with it: foliar, 72 h, cabbage leaves soaked 30 seconds, second-instar larvae, 3 days after release, 25° C., read-out: mortality rate (efficacy test against Plutella xylostella; sentence prints Spodoptera litura). As to the method: as §1, §2, §3
The emulsion (I) was diluted with water to achieve a concentration of the compound of the present invention of 125 ppm. Cabbage leaves were soaked in the diluted liquid for 30 seconds. These cabbage leaves were then placed in a Petri dish, and five second-instar larvae of Plutella xylostella were released into the dish. The Petri dish closed with a lid was placed in a thermostatic chamber at a temperature of 25° C. and a humidity of 60%. Mortality was investigated 3 days after larvae release, and the mortality rate was calculated. The test was repeated.

For a further series, the system named is Meloidogyne incognita. Nature of the series: Efficacy test against Meloidogyne incognita (in vitro test). Type of series: in vivo. The note with it: 48 h, second-instar larvae (L2), 2 days at 15° C., 96-well microplate, read-out: nematode mortality rate against Meloidogyne incognita. As to the method:
(§4) A suspension containing about 50 second-instar larvae (L2) of Meloidogyne incognita per 0.2 mL was prepared. The compound of the present invention was dissolved in DMSO, so that a DMSO solution containing the compound at a concentration of 10,000 ppm was prepared. 200 μL of the suspension mentioned above per well and 1.0 μL of the DMSO solution of the compound mentioned above per well were dispensed into each well of a 96-well microplate. The final concentration of the compound of the present invention per well was 50 ppm. The 96-well microplate was placed for 2 days at 15° C. Subsequently, mortality was investigated, and the nematode mortality rate was calculated. […] The test was repeated.

The subject of the next series is Caenorhabditis elegans. Briefly: Efficacy test against Caenorhabditis elegans (in vitro test). Format: in vivo. The note with it: 48 h, mixed instars, 2 days at 25° C., 96-well microplate, read-out: nematode mortality rate against Caenorhabditis elegans. On the procedure: as §4, with “50 mixed instars” for “50 second-instar larvae (L2)”, “of Caenorhabditis elegans” for “of Meloidogyne incognita”, “[…]” for “10,000 ppm”, “at 25°” for “at 15°”

Another series has as its system Heterodera glycines. Briefly: Efficacy test against Heterodera glycines (in vitro test). Format: in vivo. Particulars: 72 h, second-instar larvae (L2), 3 days at 25° C., 96-well microplate, read-out: nematode mortality rate against Heterodera glycines. As to the method: as §4, with “of Heterodera glycines” for “of Meloidogyne incognita”, “[…]” for “10,000 ppm”, “and 0.2” for “and 1.0”, “was 10” for “was 50”, “for 3” for “for 2”, “at 25°” for “at 15°”

SMILES strings stand for the structures.

Regarding `O=C(Nc1ccc(C(F)(F)F)cc1)c1ncc(C(F)(F)F)cc1NS(=O)(=O)C(F)(F)F` [Compound A-2], the mortality at 125 ppm with Spodoptera litura and in the series on Plutella xylostella was at least 80% each time. The “mortality rate against Mythimna separata” value in the series with Mythimna separata was 100%. Moreover, in the series with Meloidogyne incognita, the mortality at 50 ppm was at least 80%.

Take `O=C(Nc1cc(F)c(F)cc1-n1cccn1)c1sc(Cl)cc1NS(=O)(=O)C(F)(F)F` [Compound A-6]: in the series with Mythimna separata, the “mortality rate against Mythimna separata” value is listed as 100%. Further, in the series with Meloidogyne incognita, the mortality at 50 ppm is at least 80%.

`O=C(Nc1ccc(C(F)(F)F)cc1)c1cc(Cl)ncc1NS(=O)(=O)C(F)(F)F` [Compound A-5]: the mortality at 50 ppm in the series with Caenorhabditis elegans and in the series on Meloidogyne incognita was at least 80% in each case. In the series with Mythimna separata, the “mortality rate against Mythimna separata” value was found to be 100%. Besides, the mortality at 10 ppm in the series with Heterodera glycines was at least 80%.

With `O=C(Nc1ccc(F)c(F)c1)c1cnc(Cl)cc1NS(=O)(=O)C(F)(F)F` [Compound A-7], the mortality at 50 ppm with Caenorhabditis elegans and in the series on Meloidogyne incognita was at least 80% throughout. Further, the “mortality rate against Mythimna separata” value with Mythimna separata was 100%. In the series on Heterodera glycines, the mortality at 10 ppm is at least 80%.

Regarding `O=C(Nc1ccc(C(F)(F)F)cc1)c1cnc(Cl)cc1NS(=O)(=O)C(F)(F)F` [Compound A-1, 6-chloro-N-[4-(trifluoromethyl)phenyl]-4-(trifluoromethylsulfonylamino)pyridine-3-carboxamide], the mortality at 125 ppm in the series on Spodoptera litura and in the series on Plutella xylostella was at least 80% in each case. Besides, the mortality at 50 ppm with Caenorhabditis elegans and with Meloidogyne incognita was at least 80% throughout. For the same compound, the “mortality rate against Mythimna separata” value in the series on Mythimna separata was 100%. The mortality at 10 ppm in the series with Heterodera glycines was at least 80%.

The compound `COC(=O)c1cc(F)c(F)cc1NC(=O)c1ncc(C(F)(F)F)cc1NS(=O)(=O)C(F)(F)F` [Compound A-3] showed a melting point of 270 °C.

For the compound `O=C(Nc1ccc(C(F)(F)F)cc1)c1ccc(Cl)nc1NS(=O)(=O)C(F)(F)F` [Compound A-4], the mortality at 125 ppm in the series with Spodoptera litura and in the series with Plutella xylostella was at least 80% throughout. Moreover, the “mortality rate against Mythimna separata” value with Mythimna separata amounted to 100%. Besides, the mortality at 50 ppm with Meloidogyne incognita is at least 80%.

The values are drawn from patent US20210032205A1, “HETEROARYL SULFONAMIDE COMPOUND AND FORMULATION FOR CONTROLLING HARMFUL ORGANISMS” (Nippon Soda Co., Ltd., priority 2018, published 2021).
